Results reported in article PMC7508162 (Frontiers in Pharmacology, 2020).

Each compound was assayed against T1, NPP1 (Homo sapiens, UniProt P22413) (assay: NPP1 assay with p-Nph-5'-TMP as substrate). Details: soluble NPP1; 400 µM p-Nph-5'-TMP; read-out: Ki ± SEM.
T1 construct: the catalytic domains of the enzymes were amplified and sub-cloned into the expression vector pACGP67 A/B; made in house; host or cells: Sf9 insect cells
T1 sequence (P22413 98-925 limits assumed): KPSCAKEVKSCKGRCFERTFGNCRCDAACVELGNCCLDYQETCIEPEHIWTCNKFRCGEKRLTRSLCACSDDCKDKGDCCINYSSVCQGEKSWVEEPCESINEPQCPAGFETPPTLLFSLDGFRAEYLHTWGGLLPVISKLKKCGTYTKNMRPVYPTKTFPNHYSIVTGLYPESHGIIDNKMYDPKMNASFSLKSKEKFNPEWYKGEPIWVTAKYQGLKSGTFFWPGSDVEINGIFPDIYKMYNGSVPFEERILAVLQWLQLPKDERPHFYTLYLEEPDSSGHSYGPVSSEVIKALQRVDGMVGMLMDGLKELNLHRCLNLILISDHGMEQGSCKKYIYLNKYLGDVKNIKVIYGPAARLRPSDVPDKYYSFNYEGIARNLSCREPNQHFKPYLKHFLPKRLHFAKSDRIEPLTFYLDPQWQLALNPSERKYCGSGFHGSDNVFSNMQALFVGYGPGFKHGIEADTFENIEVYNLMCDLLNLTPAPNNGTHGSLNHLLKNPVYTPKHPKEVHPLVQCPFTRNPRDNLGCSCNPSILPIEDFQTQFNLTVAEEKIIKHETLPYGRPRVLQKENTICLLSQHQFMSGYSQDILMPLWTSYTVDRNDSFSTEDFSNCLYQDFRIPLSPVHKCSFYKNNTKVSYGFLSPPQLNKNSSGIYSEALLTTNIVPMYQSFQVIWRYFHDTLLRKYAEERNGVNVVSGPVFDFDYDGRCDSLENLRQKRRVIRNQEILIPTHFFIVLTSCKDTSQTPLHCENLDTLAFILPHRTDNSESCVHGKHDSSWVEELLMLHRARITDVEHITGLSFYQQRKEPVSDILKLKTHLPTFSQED
Format: biochemical
Text: The cDNAs of the human enzymes NPP1, NPP3, NPP5, CD38 and CD73 (Genbank accession no. NM_006258, NM_005021, NM_021572, NM_ 001775, and NM_002526, respectively) were obtained from Origene (Rockville, USA). Soluble enzymes were produced as previously reported with some modifications ([Lee et al., 2015]; [Junker et al., 2019]). Briefly, the catalytic domains of the enzymes were amplified and sub-cloned into the expression vector pACGP67 A/B modified with the addition of 9 x histidine tag (His-tag) at the C-terminus (except for NPP1). The plasmids were transfected in Sf9 insect cells using Cellfectin™ II Reagent (Thermo Fisher Scientific, MA, USA) and ProEasy™ baculovirus linearized DNA (Cat.#A10S, AB Vector, LLC). Protein expression was conducted for 48 h at 27°C. The signal peptide sequence of the expression vector shuttled the proteins into the supernatant. The supernatant medium was collected, and the enzymes were purified using HisPur™ Ni^2+-NTA spin columns according to the manufacturer’s protocol. The protein concentration was determined by the method previously described by [Lowry et al. (1951)].
Inhibition of NPP1 was determined as previously described ([Lee et al., 2017b]). p-Nitrophenyl-5’-thymidine monophosphate (p-Nph-5’-TMP) was used as an artificial substrate which results in the formation of the p-nitrophenolate anion with an absorption maximum of 400 nm. Purified soluble NPP1 [0.36 µg, expressed in Sf9 insect cells as previously described ([Lee et al., 2015])] was mixed with test compound (20 µM final concentration for initial screening, 0.1–200 µM for determining concentration-dependent inhibition curves), 2% DMSO and 400 µM of p-Nph-5’-TMP as a substrate in a final volume of 100 µl. The mixture was incubated for 30 min at 37°C with gentle shaking, and the enzyme reaction was terminated by the addition of 20 µl of 1 M NaOH. The absorption was measured at 405 nm using a BMG PheraStar FS plate reader (BMG Labtech GmbH, Ortenberg, Germany).
For `CCCCNc1nc2c(NC)ncnc2n1[C@@H]1O[C@H](COP(=O)(O)OP(=O)(O)C(Br)(Br)P(=O)(O)O)[C@@H](O)[C@H]1O` [Compound 33, (Dibromo((((((2R,3S,4R,5R)-5-(8-(butylamino)-6-(methylamino)-9H-purin-9-yl)-3,4-dihydroxy-tetrahydrofuran-2-yl)methoxy)(hydroxy)phosphoryl)oxy)-(hydroxy)phosphoryl)methyl)-phosphonic Acid], the Ki was 7.68 ± 5.4 µM. In the case of `CCCCSc1nc2c(N)ncnc2n1[C@@H]1O[C@H](COP(=O)(O)OP(=O)(O)C(Br)(Br)P(=O)(O)O)[C@@H](O)[C@H]1O` [Compound 31, (((((((2R,3S,4R,5R)-5-(6-Amino-8-(butylthio)-9H-purin-9-yl)-3,4-dihydroxytetrahydrofuran-2-yl)methoxy)(hydroxy)-phosphoryl)oxy)(hydroxy)phosphoryl)dibromomethyl)-phosphonic Acid], the Ki is reported as 5.17 ± 1.75 µM. For `CCN(CC)c1ncnc2c1ncn2[C@@H]1O[C@H](COP(=O)(O)OP(=O)(O)C(Br)(Br)P(=O)(O)O)[C@@H](O)[C@H]1O` [ARL67156, (Dibromo((((((2R,3S,4R,5R)-5-(6-(diethylamino)-9H-purin-9-yl)-3,4-dihydroxytetrahydrofuran-2-yl)methoxy)-(hydroxy)-phosphoryl)oxy)(hydroxy)phosphoryl)methyl)-phosphonic Acid, reference compound], the Ki was 4.41 ± 3.53 µM.
